Results published in patent publication US6713455B2, “6-O-carbamate-11,12-lacto-ketolide antimicrobials” (Ortho-McNeil Pharmaceutical, Inc., priority 2001, dated 2004).
Converted amounts (≈) assume the structure as drawn.

How the values were obtained:
Experiment in all cases: MIC, microdilution broth method (NCCLS)
Type in all cases: cell-based
Conditions in all cases: 35° C., 16-20 hours
E. coli OC2605 = system: E. coli OC2605
Procedure: (§1) Minimal inhibitory concentration (MIC) has been an indicator of in vitro antibacterial activity widely used in the art. The in vitro antimicrobial activity of the compounds was determined by the microdilution broth method following the test method from the National Committee for Clinical Laboratory Standards (NCCLS). This method is described in the NCCLS Document M7-A4, Vol.17, No.2, “Methods for Dilution Antimicrobial Susceptibility Test for Bacteria that Grow Aerobically—Fourth Edition”, which is incorporated herein by reference.
(§2) In this method two-fold serial dilutions of drug in cation adjusted Mueller-Hinton broth are added to wells in microdilution trays. The test organisms are prepared by adjusting the turbidity of actively growing broth cultures so that the final concentration of test organism after it is added to the wells is approximately 5×10^4 CFU/well.
(§3) Following inoculation of the microdilution trays, the trays are incubated at 35° C. for 16-20 hours and then read. […] The amount of growth in the wells containing the test compound is compared with the amount of growth in the growth-control wells (no test compound) used in each tray. As set forth in Table 1, compounds of the present invention were tested against a variety of Gram positive and Gram negative pathogenic bacteria resulting in a range of activities depending on the organism tested.

E. faecalis ATCC29212 = system: E. faecalis ATCC29212
Procedure: as §1, §2, §3

H. influenzae ATCC49247 = system: H. influenzae ATCC49247
Procedure: as §1, §2, §3

S. aureus ATCC29213 = system: S. aureus ATCC29213
Procedure: as §1, §2, §3

S. pneumoniae ATCC49619 = system: S. pneumoniae ATCC49619
Procedure: as §1, §2, §3

CCC1OC(=O)C(C)C(=O)C(C)C(OC2OC(C)CC(N(C)C)C2O)C(C)(OC(=O)NCc2ccc(C=Cc3ccccc3)cc2)CC(C)C(=O)C(C)C2CC(=O)OC12C (stereo not shown) [Compound 21]
MIC (μg/mL) A (E. coli OC2605): >16 µg/mL
MIC (μg/mL) C (E. faecalis ATCC29212): 1 µg/mL (≈ 1.2 µM)
MIC (μg/mL) E (H. influenzae ATCC49247): 8 µg/mL (≈ 9.6 µM)
MIC (μg/mL) B (S. aureus ATCC29213): 2 µg/mL (≈ 2.4 µM)
MIC (μg/mL) D (S. pneumoniae ATCC49619): 0.25 µg/mL (≈ 0.3 µM)

CCC1OC(=O)C(C)C(=O)C(C)C(OC2OC(C)CC(N(C)C)C2O)C(C)(OC(=O)NCC=Cc2ccc(Br)cc2)CC(C)C(=O)C(C)C2CC(=O)OC12C (stereo not shown) [Compound 22]
MIC (μg/mL) A (E. coli OC2605): 16 µg/mL (≈ 19.1 µM)
MIC (μg/mL) C (E. faecalis ATCC29212): 0.25 µg/mL (≈ 0.299 µM)
MIC (μg/mL) E (H. influenzae ATCC49247): 4 µg/mL (≈ 4.79 µM)
MIC (μg/mL) B (S. aureus ATCC29213): 1 µg/mL (≈ 1.2 µM)
MIC (μg/mL) D (S. pneumoniae ATCC49619): 0.06 µg/mL (≈ 0.0718 µM)

CCC1OC(=O)C(C)C(=O)C(C)C(OC2OC(C)CC(N(C)C)C2O)C(C)(OC(=O)N(CC=Cc2ccc(Br)cc2)CC=Cc2ccc(Br)cc2)CC(C)C(=O)C(C)C2CC(=O)OC12C (stereo not shown) [Compound 23]
MIC (μg/mL) A (E. coli OC2605): >16 µg/mL
MIC (μg/mL) C (E. faecalis ATCC29212): 2 µg/mL (≈ 1.94 µM)
MIC (μg/mL) E (H. influenzae ATCC49247): >16 µg/mL
MIC (μg/mL) B (S. aureus ATCC29213): 8 µg/mL (≈ 7.76 µM)
MIC (μg/mL) D (S. pneumoniae ATCC49619): 2 µg/mL (≈ 1.94 µM)

CCC1OC(=O)C(C)C(=O)C(C)C(OC2OC(C)CC(N(C)C)C2O)C(C)(OC(=O)NCc2ccc(-c3ccccn3)cc2)CC(C)C(=O)C(C)C2CC(=O)OC12C (stereo not shown) [Compound 26]
MIC (μg/mL) A (E. coli OC2605): >16 µg/mL
MIC (μg/mL) C (E. faecalis ATCC29212): 0.12 µg/mL (≈ 0.149 µM)
MIC (μg/mL) E (H. influenzae ATCC49247): 8 µg/mL (≈ 9.9 µM)
MIC (μg/mL) B (S. aureus ATCC29213): 1 µg/mL (≈ 1.24 µM)
MIC (μg/mL) D (S. pneumoniae ATCC49619): 0.06 µg/mL (≈ 0.0743 µM)

CCC1OC(=O)C(C)C(=O)C(C)C(OC2OC(C)CC(N(C)C)C2O)C(C)(OC(=O)NCC=Cc2ccc3ncccc3c2)CC(C)C(=O)C(C)C2CC(=O)OC12C (stereo not shown) [Compound 27]
MIC (μg/mL) A (E. coli OC2605): 16 µg/mL (≈ 19.8 µM)
MIC (μg/mL) C (E. faecalis ATCC29212): 0.06 µg/mL (≈ 0.0743 µM)
MIC (μg/mL) E (H. influenzae ATCC49247): 1 µg/mL (≈ 1.24 µM)
MIC (μg/mL) B (S. aureus ATCC29213): 0.5 µg/mL (≈ 0.619 µM)
MIC (μg/mL) D (S. pneumoniae ATCC49619): 0.03 µg/mL (≈ 0.0371 µM)

CCC1OC(=O)C(C)C(=O)C(C)C(OC2OC(C)CC(N(C)C)C2O)C(C)(OC(=O)NCc2ccc3ccccc3n2)CC(C)C(=O)C(C)C2CC(=O)OC12C (stereo not shown) [Compound 28]
MIC (μg/mL) A (E. coli OC2605): >16 µg/mL
MIC (μg/mL) C (E. faecalis ATCC29212): 0.5 µg/mL (≈ 0.639 µM)
MIC (μg/mL) E (H. influenzae ATCC49247): 8 µg/mL (≈ 10.2 µM)
MIC (μg/mL) B (S. aureus ATCC29213): 2 µg/mL (≈ 2.56 µM)
MIC (μg/mL) D (S. pneumoniae ATCC49619): 0.12 µg/mL (≈ 0.153 µM)

CCC1OC(=O)C(C)C(=O)C(C)C(OC2OC(C)CC(N(C)C)C2O)C(C)(OC(=O)NCC=Cc2ccc(-c3ccccn3)cc2)CC(C)C(=O)C(C)C2CC(=O)OC12C (stereo not shown) [Compound 29]
MIC (μg/mL) A (E. coli OC2605): >16 µg/mL
MIC (μg/mL) C (E. faecalis ATCC29212): 0.25 µg/mL (≈ 0.3 µM)
MIC (μg/mL) E (H. influenzae ATCC49247): 2 µg/mL (≈ 2.4 µM)
MIC (μg/mL) B (S. aureus ATCC29213): 0.5 µg/mL (≈ 0.6 µM)
MIC (μg/mL) D (S. pneumoniae ATCC49619): 0.06 µg/mL (≈ 0.0719 µM)

CCC1OC(=O)C(C)C(=O)C(C)C(OC2OC(C)CC(N(C)C)C2O)C(C)(OC(=O)NCC=Cc2ccc3cccnc3c2)CC(C)C(=O)C(C)C2CC(=O)OC12C (stereo not shown) [Compound 31]
MIC (μg/mL) A (E. coli OC2605): 16 µg/mL (≈ 19.8 µM)
MIC (μg/mL) C (E. faecalis ATCC29212): 0.06 µg/mL (≈ 0.0743 µM)
MIC (μg/mL) E (H. influenzae ATCC49247): >16 µg/mL
MIC (μg/mL) B (S. aureus ATCC29213): 0.25 µg/mL (≈ 0.309 µM)
MIC (μg/mL) D (S. pneumoniae ATCC49619): 0.03 µg/mL (≈ 0.0371 µM)

CCC1OC(=O)C(C)C(=O)C(C)C(OC2OC(C)CC(N(C)C)C2O)C(C)(OC(=O)NCC=Cc2ccc(-c3ncccn3)cc2F)CC(C)C(=O)C(C)C2CC(=O)OC12C (stereo not shown) [Compound 32]
MIC (μg/mL) A (E. coli OC2605): >16 µg/mL
MIC (μg/mL) C (E. faecalis ATCC29212): 0.25 µg/mL (≈ 0.293 µM)
MIC (μg/mL) E (H. influenzae ATCC49247): 8 µg/mL (≈ 9.38 µM)
MIC (μg/mL) B (S. aureus ATCC29213): 0.5 µg/mL (≈ 0.586 µM)
MIC (μg/mL) D (S. pneumoniae ATCC49619): 0.06 µg/mL (≈ 0.0703 µM)

CCC1OC(=O)C(C)C(=O)C(C)C(OC2OC(C)CC(N(C)C)C2O)C(C)(OC(=O)NCC=Cc2ccccn2)CC(C)C(=O)C(C)C2CC(=O)OC12C (stereo not shown) [Compound 33]
MIC (μg/mL) A (E. coli OC2605): >16 µg/mL
MIC (μg/mL) C (E. faecalis ATCC29212): 0.5 µg/mL (≈ 0.66 µM)
MIC (μg/mL) E (H. influenzae ATCC49247): 8 µg/mL (≈ 10.6 µM)
MIC (μg/mL) B (S. aureus ATCC29213): 2 µg/mL (≈ 2.64 µM)
MIC (μg/mL) D (S. pneumoniae ATCC49619): 0.12 µg/mL (≈ 0.158 µM)

CCC1OC(=O)C(C)C(=O)C(C)C(OC2OC(C)CC(N(C)C)C2O)C(C)(OC(=O)NCC=Cc2cccnc2)CC(C)C(=O)C(C)C2CC(=O)OC12C (stereo not shown) [Compound 34]
MIC (μg/mL) A (E. coli OC2605): >16 µg/mL
MIC (μg/mL) C (E. faecalis ATCC29212): 0.12 µg/mL (≈ 0.158 µM)
MIC (μg/mL) E (H. influenzae ATCC49247): 2 µg/mL (≈ 2.64 µM)
MIC (μg/mL) B (S. aureus ATCC29213): 0.5 µg/mL (≈ 0.66 µM)
MIC (μg/mL) D (S. pneumoniae ATCC49619): 0.06 µg/mL (≈ 0.0792 µM)

CCC1OC(=O)C(C)C(=O)C(C)C(OC2OC(C)CC(N(C)C)C2O)C(C)(OC(=O)NCC=Cc2ccc(-c3ccccc3)nc2)CC(C)C(=O)C(C)C2CC(=O)OC12C (stereo not shown) [Compound 35]
MIC (μg/mL) A (E. coli OC2605): >16 µg/mL
MIC (μg/mL) C (E. faecalis ATCC29212): 0.25 µg/mL (≈ 0.3 µM)
MIC (μg/mL) E (H. influenzae ATCC49247): 4 µg/mL (≈ 4.8 µM)
MIC (μg/mL) B (S. aureus ATCC29213): 0.5 µg/mL (≈ 0.6 µM)
MIC (μg/mL) D (S. pneumoniae ATCC49619): 0.12 µg/mL (≈ 0.144 µM)

CCC1OC(=O)C(C)C(=O)C(C)C(OC2OC(C)CC(N(C)C)C2O)C(C)(OC(=O)NCc2ccc(C=Cc3ccc4ccccc4n3)cc2)CC(C)C(=O)C(C)C2CC(=O)OC12C (stereo not shown) [Compound 36]
MIC (μg/mL) A (E. coli OC2605): >16 µg/mL
MIC (μg/mL) C (E. faecalis ATCC29212): 1 µg/mL (≈ 1.13 µM)
MIC (μg/mL) E (H. influenzae ATCC49247): 16 µg/mL (≈ 18.1 µM)
MIC (μg/mL) B (S. aureus ATCC29213): 4 µg/mL (≈ 4.52 µM)
MIC (μg/mL) D (S. pneumoniae ATCC49619): 0.25 µg/mL (≈ 0.283 µM)

CC[C@H]1OC(=O)[C@H](C)C(=O)[C@H](C)[C@@H](OC2O[C@H](C)C[C@H](N(C)C)[C@H]2O)[C@](C)(OC(=O)NC/C=C/c2cn(-c3ncccn3)cn2)C[C@@H](C)C(=O)C(C)C2CC(=O)O[C@@]21C (stereo partly shown) [Compound 37]
MIC (E. coli OC2605; Escherichia coli): > 16 µg/mL
MIC (E. faecalis ATCC29212; Enterococcus faecalis): 0.12 µg/mL (≈ 0.145 µM)
MIC (H. influenzae ATCC49247; Haemophilus influenzae): 4 µg/mL (≈ 4.85 µM)
MIC (S. aureus ATCC29213; Staphylococcus aureus): 0.5 µg/mL (≈ 0.606 µM)
MIC (S. pneumoniae ATCC49619; Streptococcus pneumoniae): 0.03 µg/mL (≈ 0.0364 µM)

CCC1OC(=O)C(C)C(=O)C(C)C(OC2OC(C)CC(N(C)C)C2O)C(C)(OC(=O)NCC=Cc2ccc3nccnc3c2)CC(C)C(=O)C(C)C2CC(=O)OC12C (stereo not shown) [Compound 38]
MIC (μg/mL) A (E. coli OC2605): >16 µg/mL
MIC (μg/mL) C (E. faecalis ATCC29212): 0.12 µg/mL (≈ 0.148 µM)
MIC (μg/mL) E (H. influenzae ATCC49247): 2 µg/mL (≈ 2.47 µM)
MIC (μg/mL) B (S. aureus ATCC29213): 0.5 µg/mL (≈ 0.618 µM)
MIC (μg/mL) D (S. pneumoniae ATCC49619): 0.03 µg/mL (≈ 0.0371 µM)

CCC1OC(=O)C(C)C(=O)C(C)C(OC2OC(C)CC(N(C)C)C2O)C(C)(OC(=O)NCC=Cc2ccnc3ccccc23)CC(C)C(=O)C(C)C2CC(=O)OC12C (stereo not shown) [Compound 39]
MIC (μg/mL) A (E. coli OC2605): 16 µg/mL (≈ 19.8 µM)
MIC (μg/mL) C (E. faecalis ATCC29212): 0.12 µg/mL (≈ 0.149 µM)
MIC (μg/mL) E (H. influenzae ATCC49247): 4 µg/mL (≈ 4.95 µM)
MIC (μg/mL) B (S. aureus ATCC29213): 0.5 µg/mL (≈ 0.619 µM)
MIC (μg/mL) D (S. pneumoniae ATCC49619): 0.03 µg/mL (≈ 0.0371 µM)

CCC1OC(=O)C(C)C(=O)C(C)C(OC2OC(C)CC(N(C)C)C2O)C(C)(OC(=O)NCC=Cc2cncc(-c3ncccn3)c2)CC(C)C(=O)C(C)C2CC(=O)OC12C (stereo not shown) [Compound 40]
MIC (μg/mL) A (E. coli OC2605): 16 µg/mL (≈ 19.1 µM)
MIC (μg/mL) C (E. faecalis ATCC29212): 0.12 µg/mL (≈ 0.144 µM)
MIC (μg/mL) E (H. influenzae ATCC49247): 1 µg/mL (≈ 1.2 µM)
MIC (μg/mL) B (S. aureus ATCC29213): 0.25 µg/mL (≈ 0.299 µM)
MIC (μg/mL) D (S. pneumoniae ATCC49619): 0.03 µg/mL (≈ 0.0359 µM)
